Reference: ChEMBL document CHEMBL1121972, “Spasmolytic agents. 2. 1,2,3,4-Tetrahydro-2-naphthylamine derivatives” (1982)

Columns and labels:
Canis familiaris [1] = assay: Antispasmodic activity was measured on colonic contraction in anesthetized dog after iv administration of a dose of 0.1 mg/kg; assay type: functional, Canis lupus familiaris
Canis familiaris [2] = assay: Antispasmodic activity was measured on stomach contraction in anesthetized dog after iv administration of a dose of 0.1 mg/kg; assay type: functional, Canis lupus familiaris

CCN(CCCCOC(=O)c1cc(OC)c(OC)c(OC)c1)C1CCc2cc(OC)ccc2C1.CS(=O)(=O)O (stereo not given)
Activity (Canis familiaris [1]): 1.1
Activity (Canis familiaris [2]): <5

CCN(CCCCOC(=O)c1ccc2c(c1)OCO2)C1CCc2cc(OC)ccc2C1.Cl (stereo not given)
Activity (Canis familiaris [1]): 1.3
Activity (Canis familiaris [2]): <5

CCN(CCCCOC(=O)c1ccccc1)C1CCc2cc(OC)ccc2C1.Cl (stereo not given)
Activity (Canis familiaris [1]): -2.6
Activity (Canis familiaris [2]): <5

CCOc1cc(C(=O)OCCCCN(CC)C2CCc3cc(OC)ccc3C2)cc(OCC)c1OCC.Cl (stereo not given)
Activity (Canis familiaris [1]): -6.8
Activity (Canis familiaris [2]): <5

CCN(CCCCOCc1ccc(OC)c(OC)c1)C1CCc2cc(OC)ccc2C1 (stereo not given)
Activity (Canis familiaris [1]): -4.3
Activity (Canis familiaris [2]): <5

CCN(CCCCOC(=O)c1ccc(OC)c(OC)c1)C1CCc2cc3c(cc2C1)OCO3.Cl (stereo not given)
Activity (Canis familiaris [1]): 13.4
Activity (Canis familiaris [2]): <5

CCN(CCOC(=O)c1ccc(OC)c(OC)c1)C1CCc2cc(OC)ccc2C1.Cl (stereo not given)
Activity (Canis familiaris [1]): 11.4
Activity (Canis familiaris [2]): <5

CCN(CC(C)(C)COC(=O)c1ccc(OC)c(OC)c1)C1CCc2cc(OC)ccc2C1.Cl (stereo not given)
Activity (Canis familiaris [1]): 15.8
Activity (Canis familiaris [2]): <5

CCN(CCOCCOC(=O)c1ccc(OC)c(OC)c1)C1CCc2cc(OC)ccc2C1.Cl (stereo not given)
Activity (Canis familiaris [1]): 0
Activity (Canis familiaris [2]): <5

CCCOc1ccc2c(c1)CCC(N(CC)CCCCOC(=O)c1ccc(OC)c(OC)c1)C2.Cl (stereo not given)
Activity (Canis familiaris [1]): 1.4
Activity (Canis familiaris [2]): <5

CCOc1ccc(C(=O)OCCCCN(CC)C2CCc3cc(OC)ccc3C2)cc1.Cl (stereo not given)
Activity (Canis familiaris [1]): -2.5
Activity (Canis familiaris [2]): <5

CCN(CCCCOC(=O)c1ccc(OC)c(OC)c1)C1CCc2ccccc2C1.Cl (stereo not given)
Activity (Canis familiaris [2]): <5

CCN(CCCCCCOC(=O)c1ccc(OC)c(OC)c1)C1CCc2cc(OC)ccc2C1.Cl (stereo not given)
Activity (Canis familiaris [2]): <5

COc1ccc2c(c1)CCC(N(C)CCCCOC(=O)c1ccc(OC)c(OC)c1)C2.Cl (stereo not given)
Activity (Canis familiaris [1]): -4.9
Activity (Canis familiaris [2]): <5

CCN(CCCCOC(=O)c1ccc(OC)c(OC)c1)C1CCc2cc(OC)c(OC)cc2C1.Cl (stereo not given)
Activity (Canis familiaris [2]): 11.8

CCN(CCCCCCCCCCOC(=O)c1ccc(OC)c(OC)c1)C1CCc2cc(OC)ccc2C1.Cl (stereo not given)
Activity (Canis familiaris [1]): 13.7
Activity (Canis familiaris [2]): <5

CCN(CCCCOC(=O)c1ccc(OC)c(OC)c1)C1CCc2c(cccc2OC)C1.Cl (stereo not given)
Activity (Canis familiaris [1]): 13.3
Activity (Canis familiaris [2]): <5

CCN(CCCCOC(=O)c1ccc(OC)c(OC)c1)C1CCc2c(OC)ccc(OC)c2C1.Cl (stereo not given)
Activity (Canis familiaris [1]): 9.2
Activity (Canis familiaris [2]): <5

CCCN(CCCCOC(=O)c1ccc(OC)c(OC)c1)C1CCc2cc(OC)ccc2C1.Cl (stereo not given)
Activity (Canis familiaris [2]): <5

CCN(CCCCCCO)C1CCc2cc(OC)ccc2C1 (stereo not given)
Activity (Canis familiaris [1]): 5.2

CCN(CCCCOC(=O)c1ccc(OC)c(OC)c1)C1CCc2ccc(OC)cc2C1.Cl (stereo not given)
Activity (Canis familiaris [2]): 18.1

CCN(CCCOC(=O)c1ccc(OC)c(OC)c1)C1CCc2cc(OC)ccc2C1.Cl (stereo not given)
Activity (Canis familiaris [1]): -1
Activity (Canis familiaris [2]): <5

CCN(CCCCO)C1CCc2cc(OC)ccc2C1 (stereo not given)
Activity (Canis familiaris [1]): 2.6
Activity (Canis familiaris [2]): <5

CCOc1ccc2c(c1)CCC(N(CC)CCCCOC(=O)c1ccc(OC)c(OC)c1)C2.Cl (stereo not given)
Activity (Canis familiaris [1]): 7.4
Activity (Canis familiaris [2]): <5

CCN(CCCCCCOC(=O)c1ccc(OC)c(OC)c1)C1CCc2cc(OC)c(OC)cc2C1.Cl (stereo not given)
Activity (Canis familiaris [2]): 64.5

CCN(CCCCOC(=O)c1ccc(OC)c(OC)c1)C1CCc2cc(OC)ccc2C1.Cl (stereo not given)
Activity (Canis familiaris [2]): 6.6

COc1ccc2c(c1)CCC(N(CCCCOC(=O)c1ccc(OC)c(OC)c1)C(C)C)C2.Cl (stereo not given)
Activity (Canis familiaris [1]): 19.6
Activity (Canis familiaris [2]): <5

CCN(CCCCCCOC(=O)c1ccc(OC)c(OC)c1)C1CCc2ccccc2C1.Cl (stereo not given)
Activity (Canis familiaris [2]): 31.3

CCN(CCCCOC(=O)c1c(OC)cccc1OC)C1CCc2cc(OC)ccc2C1.Cl (stereo not given)
Activity (Canis familiaris [1]): -8.7
Activity (Canis familiaris [2]): <5

CCN(CCCCOC(=O)c1ccc(OC)cc1)C1CCc2cc(OC)ccc2C1.Cl (stereo not given)
Activity (Canis familiaris [1]): 8.1
Activity (Canis familiaris [2]): <5

CCN(CCCCOC(=O)c1ccc(OC)c(OC)c1)C1CCc2cccc(OC)c2C1.Cl (stereo not given)
Activity (Canis familiaris [2]): 21.3

CCN(CCCCOC(=O)c1ccc(OC)c(OC)c1)C(C)Cc1ccc(OC)cc1 (stereo not given) [MEBEVERINE]
Activity (Canis familiaris [2]): 2.6

CCCOc1ccc(C(=O)OCCCCN(CC)C2CCc3cc(OC)ccc3C2)cc1.Cl (stereo not given)
Activity (Canis familiaris [1]): 10.2
Activity (Canis familiaris [2]): <5
